The values that follow come from ChEMBL document CHEMBL4017483, “Potent and selective oxytocin receptor agonists without disulfide bridges” (Bioorg Med Chem Lett, 2017).

Assay [1] has as its target Vasopressin V1a receptor (Homo sapiens, UniProt P37288). As to the kind of experiment: Agonist activity at human V1a receptor expressed in CHO cells assessed as calcium mobilization measured after 30 mins by Fluo-4-AM dye based FLIPR assay. In kind it is cell-based. (In general: A change in cytosolic calcium serves as a functional read-out for many receptors and channels.)

The species entered for assay [2] is Homo sapiens. The assay can be described thus: Selectivity ratio of EC50 for human V1b receptor to EC50 for human OTR.
Assay [3] concerns the target T1, Vasopressin V1b receptor (Homo sapiens, UniProt P47901).
T1 sequence (P47901 whole entry): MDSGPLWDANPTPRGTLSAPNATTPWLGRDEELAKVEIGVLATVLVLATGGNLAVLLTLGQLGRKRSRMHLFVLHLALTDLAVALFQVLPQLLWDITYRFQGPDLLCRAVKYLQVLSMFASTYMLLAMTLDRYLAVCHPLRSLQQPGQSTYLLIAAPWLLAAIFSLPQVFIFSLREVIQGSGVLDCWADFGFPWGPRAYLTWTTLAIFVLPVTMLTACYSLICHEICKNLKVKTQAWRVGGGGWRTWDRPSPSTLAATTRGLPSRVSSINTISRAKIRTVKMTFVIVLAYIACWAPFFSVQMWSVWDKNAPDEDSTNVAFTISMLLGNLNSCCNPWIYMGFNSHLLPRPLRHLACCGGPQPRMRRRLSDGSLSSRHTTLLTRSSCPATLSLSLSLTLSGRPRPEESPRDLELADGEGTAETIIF
The assay can be described thus: Agonist activity at human V1b receptor expressed in CHO cells assessed as calcium mobilization measured after 30 mins by Fluo-4-AM dye based FLIPR assay. In kind it is cell-based.

The species named for assay [4] is Homo sapiens. As to the kind of experiment: Selectivity ratio of EC50 for human V1a receptor to EC50 for human OTR.
For assay [5], the target named is T2, Oxytocin receptor (Homo sapiens, UniProt P30559).
T2 sequence (P30559 whole entry): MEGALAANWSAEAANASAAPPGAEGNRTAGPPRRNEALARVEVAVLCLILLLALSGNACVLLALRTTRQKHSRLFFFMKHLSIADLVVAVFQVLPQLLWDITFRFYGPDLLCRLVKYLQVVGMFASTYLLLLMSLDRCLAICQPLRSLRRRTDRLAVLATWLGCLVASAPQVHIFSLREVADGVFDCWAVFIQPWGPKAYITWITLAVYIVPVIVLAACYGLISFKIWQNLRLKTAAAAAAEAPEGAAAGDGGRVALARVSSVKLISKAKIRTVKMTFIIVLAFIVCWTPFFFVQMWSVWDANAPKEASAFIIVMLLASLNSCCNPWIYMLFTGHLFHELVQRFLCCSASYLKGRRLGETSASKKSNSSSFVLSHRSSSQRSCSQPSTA
As to the kind of experiment: Agonist activity at human OTR expressed in CHO cells assessed as calcium mobilization measured after 30 mins by Fluo-4-AM dye based FLIPR assay. The assay is classed as functional, cell-based.

pEC50: −log10 of the molar value. Numbered stars: 1 amine (or outer) side, 2 acyl side, 3 side chain; on linkers, the order of the positions; unused ones are H or OH. Bridge positions count the residues as written; N and C are the ends. Square brackets hold non-standard residues; d marks the D form. Peptide text beside a SMILES is read from it. Hyp = O=C(O)[C@@H]1C[C@@H](O)CN1; tBuAla = CC(C)(C)C[C@H](N)C(=O)O; NMeS = CN[C@@H](CO)C(=O)O; NMeA = CN[C@@H](C)C(=O)O; X1 = O=C(CCC[*:2])[*:1]; Mpa = O=C(O)CCS

Chain of Vasopressin V1a receptor (P37288 whole entry): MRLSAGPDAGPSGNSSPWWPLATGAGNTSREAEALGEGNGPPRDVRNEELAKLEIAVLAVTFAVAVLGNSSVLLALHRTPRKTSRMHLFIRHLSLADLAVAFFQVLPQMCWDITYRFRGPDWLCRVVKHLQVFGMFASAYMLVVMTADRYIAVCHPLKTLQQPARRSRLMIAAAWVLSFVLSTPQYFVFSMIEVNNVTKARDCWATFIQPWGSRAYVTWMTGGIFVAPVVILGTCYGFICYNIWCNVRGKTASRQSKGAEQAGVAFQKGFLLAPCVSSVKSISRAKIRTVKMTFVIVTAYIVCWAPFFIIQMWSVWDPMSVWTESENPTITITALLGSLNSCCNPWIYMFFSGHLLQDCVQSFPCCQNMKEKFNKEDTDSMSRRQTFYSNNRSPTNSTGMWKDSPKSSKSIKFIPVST

Regarding `CC[C@H](C)[C@@H]1NC(=O)[C@H](Cc2ccc(O)cc2)NC(=O)CCSSC[C@@H](C(=O)N2CCC[C@H]2C(=O)N[C@@H](CC(C)C)C(=O)NCC(N)=O)NC(=O)[C@H](CC(N)=O)NC(=O)[C@H](CO)NC1=O` ([Mpa]YISNCPLG-NH2; disulfide 1-6), the pEC50 (commonly −log10 of the EC50, conventionally taken in molar units) in assay [1] was less than 7.00; in assay [3] it was 8.05; in assay [5], 10.14. Moreover, the Ratio EC50 was 120 in assay [2] and greater than 1000 in assay [4].
The matching figures for `CC(C)C[C@H](NC(=O)[C@@H]1CCCN1C(=O)[C@@H]1CSSCCC(=O)N[C@@H](Cc2ccc(O)cc2)C(=O)N[C@@H](Cc2ccccc2)C(=O)N[C@@H](CCC(N)=O)C(=O)N[C@@H](CC(N)=O)C(=O)N1)C(=O)NCC(N)=O` ([Mpa]YFQNCPLG-NH2; disulfide 1-6): less than 7.00, 9.37, 9.96, 3.9 and greater than 100.
The matching figures for `CC[C@H](C)[C@@H]1NC(=O)[C@H](Cc2ccc(O)cc2)NC(=O)CCSSC[C@@H](C(=O)N2CCC[C@H]2C(=O)N[C@@H](CC(C)C)C(=O)NCC(N)=O)NC(=O)[C@H](CC(N)=O)NC(=O)[C@H](CCC(=O)O)NC1=O` ([Mpa]YIENCPLG-NH2; disulfide 1-6): less than 7.00, less than 7.00, 8.29, greater than 10 and greater than 10.
As for `CC[C@H](C)[C@@H]1NC(=O)[C@H](Cc2ccc(O)cc2)NC(=O)CCSSC[C@@H](C(=O)N2CCC[C@H]2C(=O)N[C@@H](CC(C)C)C(=O)N(C)CC(N)=O)NC(=O)[C@H](CC(N)=O)NC(=O)[C@H](CCC(N)=O)NC1=O`, the values for the pEC50 in assay [1], in assay [3] and in assay [5] were less than 7.00, less than 7.00 and 9.92, respectively. In addition, the Ratio EC50 in assay [2] and in assay [4] was greater than 100 in each case.
Take `CC[C@H](C)[C@@H]1NC(=O)[C@H](Cc2ccc(O)cc2)NC(=O)CCCSC[C@@H](C(=O)N2C[C@H](O)C[C@H]2C(=O)N[C@@H](CC(C)(C)C)C(=O)NCC(N)=O)NC(=O)[C@H](CC(N)=O)NC(=O)[C@H](CCC(N)=O)NC1=O` (YIQNC[Hyp][tBuAla]G-NH2; linker N-5 via X1): the values for the pEC50 in assay [1], in assay [3] and in assay [5] were less than 7.00, less than 7.00 and 11.14, respectively. Further, the Ratio EC50 in assay [2] and in assay [4] was greater than 10000 each time.
`CC[C@H](C)[C@@H]1NC(=O)[C@H](Cc2ccc(O)cc2)NC(=O)CCSSC[C@@H](C(=O)N2CCC[C@H]2C(=O)N[C@@H](CC(C)C)C(=O)NCC(N)=O)NC(=O)[C@H](CO)NC(=O)[C@H](CCC(N)=O)NC1=O` ([Mpa]YIQSCPLG-NH2; disulfide 1-6): the values for the pEC50 in assay [1], in assay [3] and in assay [5] were less than 7.00, less than 7.00 and 7.92, respectively. In addition, the Ratio EC50 in assay [2] and in assay [4] was greater than 8 each time.
As to `CC[C@H](C)[C@@H]1NC(=O)[C@H](Cc2ccc(O)cc2)NC(=O)CCSSC[C@@H](C(=O)N2CCC[C@H]2C(=O)N[C@@H](CC(C)C)C(=O)N[C@@H](Cc2ccccc2)C(N)=O)NC(=O)[C@H](CC(N)=O)NC(=O)[C@H](CCC(N)=O)NC1=O` ([Mpa]YIQNCPLF-NH2; disulfide 1-6), the negative logarithm of the EC50 (pEC50) was less than 7.00 in assay [1], less than 7.00 in assay [3] and 8.80 in assay [5]. The Ratio EC50 in assay [2] and in assay [4] was greater than 10 in each case.
As for `CC[C@H](C)[C@@H]1NC(=O)[C@H](Cc2ccc(O)cc2)NC(=O)CCSSC[C@@H](C(=O)N2CCC[C@H]2C(=O)N[C@@H](CC(C)C)C(=O)NCC(N)=O)NC(=O)[C@H](CC(N)=O)NC(=O)[C@H](CCCNC(=N)N)NC1=O` ([Mpa]YIRNCPLG-NH2; disulfide 1-6), the values for the pEC50 in assay [1], in assay [3] and in assay [5] were less than 7.00, 8.05 and 8.92, respectively. The Ratio EC50 is 7.5 in assay [2] and greater than 10 in assay [4].
The matching figures for `CC[C@H](C)[C@@H]1NC(=O)[C@H](Cc2ccc(O)cc2)NC(=O)CCSSC[C@@H](C(=O)N(C)[C@@H](CO)C(=O)N[C@@H](CC(C)C)C(=O)NCC(N)=O)NC(=O)[C@H](CC(N)=O)NC(=O)[C@H](CCC(N)=O)NC1=O` ([Mpa]YIQNC[NMeS]LG-NH2; disulfide 1-6): less than 7.00, less than 7.00, 10.38, greater than 1000 and greater than 1000.
Regarding `CC[C@H](C)[C@@H]1NC(=O)[C@H](Cc2ccc(O)cc2)NC(=O)CCSSC[C@@H](C(=O)N2CCC[C@H]2C(=O)N[C@@H](CC(C)C)C(=O)N[C@@H](C)C(N)=O)NC(=O)[C@H](CC(N)=O)NC(=O)[C@H](CCC(N)=O)NC1=O` ([Mpa]YIQNCPLA-NH2; disulfide 1-6), the negative-log EC50 (pEC50) in assay [1] was less than 7.00; in assay [3] it was less than 7.00; in assay [5], 8.85. In addition, the Ratio EC50 in assay [2] and in assay [4] was greater than 10 each time.
As to `S`, the values for the negative-log EC50 (pEC50) in assay [1], in assay [3] and in assay [5] were less than 7.00, less than 7.00 and 9.92, respectively. Besides, the Ratio EC50 in assay [2] and in assay [4] was greater than 100 in each case.
Take `CC[C@H](C)[C@@H]1NC(=O)[C@H](CC(C)C)NC(=O)CCSSC[C@@H](C(=O)N2CCC[C@H]2C(=O)N[C@@H](CC(C)C)C(=O)NCC(N)=O)NC(=O)[C@H](CC(N)=O)NC(=O)[C@H](CCC(N)=O)NC1=O` ([Mpa]LIQNCPLG-NH2; disulfide 1-6): the negative-log EC50 (pEC50) is less than 7.00 in assay [1], less than 7.00 in assay [3] and 8.44 in assay [5]. Moreover, the Ratio EC50 in assay [2] and in assay [4] was greater than 10 in each case.
With `CC[C@H](C)[C@@H]1NC(=O)[C@H](Cc2ccc(O)cc2)NC(=O)CCSSC[C@@H](C(=O)N2C[C@@H](O)C[C@H]2C(=O)N[C@@H](CC(C)C)C(=O)NCC(N)=O)NC(=O)[C@H](CC(N)=O)NC(=O)[C@H](CCC(N)=O)NC1=O`, the pEC50 was less than 7.00 in assay [1], 8.09 in assay [3] and 11.15 in assay [5]. In addition, the Ratio EC50 in assay [2] was 1200; in assay [4], greater than 10000.
With `CCCCCCC(NC(=O)[C@@H]1CCCN1C(=O)[C@@H]1CSSCCC(=O)N[C@@H](Cc2ccc(O)cc2)C(=O)N[C@@H]([C@@H](C)CC)C(=O)N[C@@H](CCC(N)=O)C(=O)N[C@@H](CC(N)=O)C(=O)N1)C(=O)NCC(N)=O` (stereo not given in full), the negative logarithm of the EC50 (pEC50) in assay [1] is 8.51; in assay [3], 9.26; in assay [5], 10.57. For the same compound, the Ratio EC50 in assay [2] stood at 20; in assay [4], 120.
The matching figures for `CC[C@H](C)[C@@H]1NC(=O)[C@H](Cc2ccc(O)cc2)NC(=O)CCSSC[C@@H](C(=O)N(C)[C@@H](C)C(=O)N[C@@H](CC(C)C)C(=O)NCC(N)=O)NC(=O)[C@H](CC(N)=O)NC(=O)[C@H](CCC(N)=O)NC1=O` ([Mpa]YIQNC[NMeA]LG-NH2; disulfide 1-6): less than 7.00, less than 7.00, 9.96, greater than 100 and greater than 100.
With `CC[C@H](C)[C@@H]1NC(=O)[C@H](Cc2ccc(O)cc2)NC(=O)CCSSC[C@@H](C(=O)N2CCC[C@H]2C(=O)N[C@@H](CC(C)C)C(=O)NCC(N)=O)NC(=O)[C@H](CC(N)=O)NC(=O)[C@H](C)NC1=O` ([Mpa]YIANCPLG-NH2; disulfide 1-6), the pEC50 was less than 7.00 in assay [1], 7.16 in assay [3] and 9.62 in assay [5]. Also, the Ratio EC50 in assay [2] was 290; in assay [4], greater than 100.
As to `CC[C@H](C)[C@@H]1NC(=O)[C@H](Cc2ccc(O)cc2)NC(=O)CCSSC[C@@H](C(=O)N2CCC[C@H]2C(=O)N[C@H](C(=O)NCC(N)=O)C(C)C)NC(=O)[C@H](CC(N)=O)NC(=O)[C@H](CCC(N)=O)NC1=O` ([Mpa]YIQNCPVG-NH2; disulfide 1-6), the pEC50 in assay [1] was 8.29; in assay [3], 8.89; in assay [5], 10.85. The Ratio EC50 in assay [2] stood at 93; in assay [4], 360.
Consider `CC[C@H](C)[C@@H]1NC(=O)[C@H](Cc2ccc(O)cc2)NC(=O)CCSSC[C@@H](C(=O)N[C@@H](C)C(=O)N[C@@H](CC(C)C)C(=O)NCC(N)=O)NC(=O)[C@H](CC(N)=O)NC(=O)[C@H](CCC(N)=O)NC1=O` ([Mpa]YIQNCALG-NH2; disulfide 1-6), for which the figures for the pEC50 in assay [1], in assay [3] and in assay [5] were less than 7.00, less than 7.00 and 10.15, respectively. Further, the Ratio EC50 in assay [2] and in assay [4] was greater than 1000 each time.
